Test results taken from ChEMBL document CHEMBL6109043, “Advances in the selective c-MET kinase inhibitors: Application of fused [5,6]-Bicyclic nitrogen-containing cores for anticancer drug design” (Eur J Med Chem, 2025).
≈ marks a conversion by molar mass, not a printed value.

Columns and labels:
[1] = target: T1, CYP3A4 (Homo sapiens, UniProt P08684); test: Inhibition of CYP3A4 (unknown origin); type: ADME
[2] = target: Cytochrome P450 3A4 (Homo sapiens, UniProt P08684); test: Inhibition of CYP3A4 in human liver microsome assessed as fold change; type: ADME; conditions: microsomes
[3] = target: T1, CYP3A4; test: Inhibition of CYP3A4 in human liver microsomes; type: ADME, Microsome
[4] = system: MKN-45; test: Antiproliferative activity against human MKN-45 cells assessed as reduction in cell viability incubated for 72 hrs by Cell-titer glo luminescent assay; type: functional, cell-based; conditions: MKN-45, 72 h
[5] = system: EBC-1; test: Antiproliferative activity against human EBC-1 cells assessed as reduction in cell viability incubated for 72 hrs by Cell-titer glo luminescent assay; type: functional, cell-based; conditions: EBC-1, 72 h
[6] = target: T2, Hepatocyte growth factor receptor (Homo sapiens, UniProt P08581); test: Inhibition of c-MET (unknown origin) using poly (Glu,Tyr) 4:1 as substrate incubated for 30 mins by ADP-Glo reagent based analysis
[7] = system: HepG2; test: Antiproliferative activity against human HepG2 cells assessed as reduction in cell viability incubated for 72 hrs by MTT assay; type: functional, cell-based; conditions: HepG2, 72 h
[8] = Water solubility of compound at pH 7 incubated for 2 hrs by HPLC analysis; type: physicochemical
[9] = target: Epidermal growth factor receptor (Homo sapiens, UniProt P00533); test: Inhibition of EGFR (unknown origin)
[10] = target: T2, Hepatocyte growth factor receptor; test: Inhibition of c-MET (unknown origin) incubated for 30 mins by ELISA method
[11] = target: ALK tyrosine kinase receptor (Homo sapiens, UniProt Q9UM73); test: Inhibition of ALK (unknown origin)
[12] = Antiproliferative activity against mouse BaF3/[…] cells assessed as reduction in cell viability incubated for 72 hrs by Cell-titer glo reagent based assay; type: functional; conditions: BaF3, 72 h
[13] = target: Proto-oncogene tyrosine-protein kinase receptor Ret (Homo sapiens, UniProt P07949); test: Inhibition of RET (unknown origin)
[14] = target: T2, Hepatocyte growth factor receptor; test: Inhibition of c-Met (unknown origin)
[15] = Antiproliferative activity against mouse BaF3/TRP-Met cells assessed as reduction in cell growth incubated for 72 hrs by SRB assay; conditions: BaF3, 72 h
[16] = system: SNU1; test: Antiproliferative activity against human SNU1 cells assessed as reduction in cell viability incubated for 72 hrs by SRB assay; conditions: SNU1, 72 h
[17] = system: NIH3T3; test: Antiproliferative activity against mouse NIH3T3/TRP-Met cells assessed as reduction in cell growth incubated for 72 hrs by SRB assay; conditions: NIH3T3, 72 h
[18] = system: NCI-H661; test: Antiproliferative activity against human NCI-H661 cells assessed as reduction in cell viability incubated for 72 hrs by SRB assay; conditions: NCI-H661, 72 h
[19] = system: NIH3T3; test: Antiproliferative activity against mouse NIH3T3 cells assessed as reduction in cell growth incubated for 72 hrs by SRB assay; conditions: NIH3T3, 72 h

T2 sequence (P08581 whole entry): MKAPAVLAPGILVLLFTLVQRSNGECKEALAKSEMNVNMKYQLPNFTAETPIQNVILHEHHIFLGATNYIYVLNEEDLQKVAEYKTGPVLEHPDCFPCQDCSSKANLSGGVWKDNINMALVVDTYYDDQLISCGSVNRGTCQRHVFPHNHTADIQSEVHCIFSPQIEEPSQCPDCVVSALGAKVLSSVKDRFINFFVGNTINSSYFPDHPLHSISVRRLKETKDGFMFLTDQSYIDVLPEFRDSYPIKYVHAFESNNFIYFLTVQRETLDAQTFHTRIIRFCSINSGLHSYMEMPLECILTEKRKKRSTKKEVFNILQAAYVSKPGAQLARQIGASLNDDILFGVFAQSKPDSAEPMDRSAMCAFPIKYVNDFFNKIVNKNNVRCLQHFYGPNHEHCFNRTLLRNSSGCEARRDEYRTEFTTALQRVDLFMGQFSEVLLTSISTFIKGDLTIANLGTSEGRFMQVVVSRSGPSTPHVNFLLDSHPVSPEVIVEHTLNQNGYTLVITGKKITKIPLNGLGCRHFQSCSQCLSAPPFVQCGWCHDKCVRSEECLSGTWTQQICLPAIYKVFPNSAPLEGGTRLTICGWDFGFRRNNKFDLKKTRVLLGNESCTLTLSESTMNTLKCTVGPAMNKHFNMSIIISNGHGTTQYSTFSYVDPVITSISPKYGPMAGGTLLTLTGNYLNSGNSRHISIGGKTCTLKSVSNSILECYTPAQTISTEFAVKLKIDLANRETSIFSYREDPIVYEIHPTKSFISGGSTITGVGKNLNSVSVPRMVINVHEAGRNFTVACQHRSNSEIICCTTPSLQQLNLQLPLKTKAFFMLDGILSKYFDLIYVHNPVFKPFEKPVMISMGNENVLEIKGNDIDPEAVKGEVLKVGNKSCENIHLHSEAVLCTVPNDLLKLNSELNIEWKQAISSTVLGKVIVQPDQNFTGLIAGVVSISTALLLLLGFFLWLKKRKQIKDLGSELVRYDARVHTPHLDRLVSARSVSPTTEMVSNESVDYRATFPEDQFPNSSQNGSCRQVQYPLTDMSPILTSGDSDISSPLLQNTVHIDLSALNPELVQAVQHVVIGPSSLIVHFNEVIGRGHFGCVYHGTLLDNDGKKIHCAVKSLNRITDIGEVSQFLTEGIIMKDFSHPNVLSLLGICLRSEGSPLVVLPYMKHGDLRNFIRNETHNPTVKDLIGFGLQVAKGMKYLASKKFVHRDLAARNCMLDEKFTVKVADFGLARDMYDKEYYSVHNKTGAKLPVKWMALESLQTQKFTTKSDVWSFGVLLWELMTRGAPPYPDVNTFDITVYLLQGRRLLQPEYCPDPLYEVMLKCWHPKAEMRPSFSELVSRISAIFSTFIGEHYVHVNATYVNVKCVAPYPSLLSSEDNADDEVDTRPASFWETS
Sequence of Proto-oncogene tyrosine-protein kinase receptor Ret (P07949 whole entry): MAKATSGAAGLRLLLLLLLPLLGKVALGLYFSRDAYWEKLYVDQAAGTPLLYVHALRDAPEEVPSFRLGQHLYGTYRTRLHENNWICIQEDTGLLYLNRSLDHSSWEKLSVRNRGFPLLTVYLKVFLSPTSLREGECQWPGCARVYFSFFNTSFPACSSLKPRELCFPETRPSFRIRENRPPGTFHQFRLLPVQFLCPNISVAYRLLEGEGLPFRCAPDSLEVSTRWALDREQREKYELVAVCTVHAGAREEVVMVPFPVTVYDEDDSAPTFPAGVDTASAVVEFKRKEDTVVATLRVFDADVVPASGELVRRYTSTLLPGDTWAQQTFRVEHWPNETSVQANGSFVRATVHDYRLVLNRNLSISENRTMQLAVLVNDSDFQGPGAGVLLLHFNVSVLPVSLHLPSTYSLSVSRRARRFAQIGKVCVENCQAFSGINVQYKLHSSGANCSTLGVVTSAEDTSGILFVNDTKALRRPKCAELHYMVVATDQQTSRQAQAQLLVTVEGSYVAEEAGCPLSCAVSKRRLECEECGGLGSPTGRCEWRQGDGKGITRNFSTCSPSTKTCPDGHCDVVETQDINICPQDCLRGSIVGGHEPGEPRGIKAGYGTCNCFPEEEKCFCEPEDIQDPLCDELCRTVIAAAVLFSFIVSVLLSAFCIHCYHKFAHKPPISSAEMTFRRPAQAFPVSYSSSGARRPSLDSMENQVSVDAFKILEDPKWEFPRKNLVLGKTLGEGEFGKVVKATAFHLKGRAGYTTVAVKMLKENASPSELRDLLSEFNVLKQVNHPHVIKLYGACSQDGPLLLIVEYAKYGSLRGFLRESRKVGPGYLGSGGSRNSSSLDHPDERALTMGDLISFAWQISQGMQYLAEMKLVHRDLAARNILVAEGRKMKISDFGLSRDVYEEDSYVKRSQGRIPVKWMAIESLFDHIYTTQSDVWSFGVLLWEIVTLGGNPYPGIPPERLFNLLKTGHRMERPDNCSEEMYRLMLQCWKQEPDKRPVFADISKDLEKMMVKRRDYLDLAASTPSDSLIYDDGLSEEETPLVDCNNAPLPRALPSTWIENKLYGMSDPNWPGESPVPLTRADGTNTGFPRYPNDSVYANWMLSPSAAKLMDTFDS
Sequence of Epidermal growth factor receptor (P00533 whole entry): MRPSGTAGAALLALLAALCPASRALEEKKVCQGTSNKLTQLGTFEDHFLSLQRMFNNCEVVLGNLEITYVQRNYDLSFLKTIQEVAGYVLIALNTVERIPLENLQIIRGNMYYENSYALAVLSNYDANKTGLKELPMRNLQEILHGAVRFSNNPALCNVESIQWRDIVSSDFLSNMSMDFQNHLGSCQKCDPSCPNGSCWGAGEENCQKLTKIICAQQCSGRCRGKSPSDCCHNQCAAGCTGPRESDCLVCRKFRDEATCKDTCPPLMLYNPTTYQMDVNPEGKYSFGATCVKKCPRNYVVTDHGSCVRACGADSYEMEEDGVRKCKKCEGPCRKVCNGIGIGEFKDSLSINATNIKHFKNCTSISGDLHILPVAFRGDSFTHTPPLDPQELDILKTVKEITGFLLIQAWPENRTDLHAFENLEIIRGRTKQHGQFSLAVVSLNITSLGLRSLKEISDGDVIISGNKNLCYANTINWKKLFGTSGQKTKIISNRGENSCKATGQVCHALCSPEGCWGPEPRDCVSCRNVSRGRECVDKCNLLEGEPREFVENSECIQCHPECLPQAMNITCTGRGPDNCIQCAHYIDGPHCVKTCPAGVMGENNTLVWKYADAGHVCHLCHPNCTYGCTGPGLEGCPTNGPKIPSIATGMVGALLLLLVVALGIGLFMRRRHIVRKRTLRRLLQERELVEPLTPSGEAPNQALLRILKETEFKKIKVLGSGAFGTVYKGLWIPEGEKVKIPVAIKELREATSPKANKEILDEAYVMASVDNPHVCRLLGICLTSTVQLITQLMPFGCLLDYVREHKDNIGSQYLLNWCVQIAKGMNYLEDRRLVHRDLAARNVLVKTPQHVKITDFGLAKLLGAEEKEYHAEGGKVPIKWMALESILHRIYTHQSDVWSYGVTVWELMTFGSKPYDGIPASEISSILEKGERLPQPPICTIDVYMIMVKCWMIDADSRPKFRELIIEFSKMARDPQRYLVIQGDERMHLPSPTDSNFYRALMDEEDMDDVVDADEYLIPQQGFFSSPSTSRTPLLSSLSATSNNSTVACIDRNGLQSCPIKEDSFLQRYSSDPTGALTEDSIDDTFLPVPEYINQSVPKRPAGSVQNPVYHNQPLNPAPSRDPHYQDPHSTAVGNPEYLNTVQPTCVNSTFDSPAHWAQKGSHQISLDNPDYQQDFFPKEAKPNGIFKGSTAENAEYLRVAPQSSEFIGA
T1 sequence (P08684 whole entry): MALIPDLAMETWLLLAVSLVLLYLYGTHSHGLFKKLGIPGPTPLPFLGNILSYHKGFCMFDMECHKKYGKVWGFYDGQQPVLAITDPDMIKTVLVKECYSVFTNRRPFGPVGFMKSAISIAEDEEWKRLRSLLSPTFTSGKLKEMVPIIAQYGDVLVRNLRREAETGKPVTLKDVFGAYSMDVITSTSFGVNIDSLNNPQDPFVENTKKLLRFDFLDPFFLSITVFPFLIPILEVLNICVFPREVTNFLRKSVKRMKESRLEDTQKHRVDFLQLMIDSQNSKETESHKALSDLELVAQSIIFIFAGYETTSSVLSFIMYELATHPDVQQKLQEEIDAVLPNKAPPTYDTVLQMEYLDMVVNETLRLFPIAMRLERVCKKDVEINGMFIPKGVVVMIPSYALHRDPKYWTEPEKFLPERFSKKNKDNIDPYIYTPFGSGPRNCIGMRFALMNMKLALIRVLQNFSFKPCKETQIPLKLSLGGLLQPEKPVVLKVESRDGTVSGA
Sequence of Cytochrome P450 3A4 (P08684 whole entry): as above

## COc1ccc2c(NCc3nnc4ccc(-c5ccccc5)nn34)ccnc2c1
[1]
  IC50: > 50 µM
[2]
  fold change (FC): > 1
[3]
  IC50: > 50 µM

## CC(c1c(Cl)ccc(F)c1Cl)c1c(Cl)[nH]c2ncc(-c3cnn(C4CCNCC4)c3)cc12 (centres undefined)
[4]
  IC50: 6.52 µM
[5]
  IC50: 9.21 µM

## Cc1ccc(-c2cnc3nnc(SCc4ccncc4)n3n2)cc1
[6]
  IC50: 0.0046 µM
[7]
  IC50: 0.74 µM

## Oc1ccc(-c2cnc3nnc(NCc4ccncc4)n3n2)cc1
[8]
  solubility at 2 h: 203 µg/mL (≈ 636 µM)
[6]
  IC50: 0.052 µM
[7]
  IC50: 3.06 µM

## Oc1ccc(-c2cnc3nnc(SCc4ccncc4)n3n2)cc1
[8]
  solubility at 2 h: 3.6 µg/mL (≈ 10.7 µM)

## Clc1ccc(-c2cn3cccc(COc4nnc5ccc(Cl)nn45)c3n2)c(Cl)c1
[9]
  IC50: 15.6 µM
[10]
  IC50: 0.062 µM
[11]
  IC50: 13.5 µM
[12]
  IC50: 0.271 µM
[13]
  IC50: 12.3 µM

## Brc1ccc(-c2cnc3nnc(SCc4cccnc4)n3n2)cc1
[6]
  IC50: 0.0064 µM
[7]
  IC50: 0.71 µM

## Clc1ccc(Cl)c(-c2cn3cccc(COc4nnc5ccc(Cl)nn45)c3n2)c1
[9]
  IC50: 14.2 µM
[10]
  IC50: 0.053 µM
[11]
  IC50: 11.3 µM
[12]
  IC50: 0.253 µM
[13]
  IC50: 12.2 µM

## COc1ccc2c(OCc3nnc4ccc(-c5ccccc5)nn34)ccnc2c1 [AMG-208]
[14]
  IC50: 0.0044 µM

## COc1ccc2c(SCc3nnc4ccc(-c5ccccc5)nn34)ccnc2c1
[2]
  fold change (FC): 0.64

## Cc1[nH]c2ncc(-c3cnn(C4CCNCC4)c3)cc2c1C(C)c1c(Cl)ccc(F)c1Cl (centres undefined)
[4]
  IC50: 1.98 µM
[5]
  IC50: 2.38 µM

## Cc1ccc(-c2cnc3nnc(SCc4cccnc4)n3n2)cc1
[6]
  IC50: 0.0056 µM
[7]
  IC50: 1.02 µM

## COc1ccc2c(OCc3nnc4ncc(-c5ccccc5)nn34)ccnc2c1
[15]
  IC50: 0.0237 µM
[16]
  IC50: > 50 µM
[17]
  IC50: 0.0795 µM
[18]
  IC50: > 50 µM
[19]
  IC50: > 50 µM
